Drawing on patent US20240368135A1 (VERTEX PHARMACEUTICALS INCORPORATED, priority 2021, published 2024), this text covers IC50 for ten compounds.

This test addresses human NaV 1.8 (Homo sapiens, UniProt Q9Y5Y9). Description: E-VIPR assay detecting and measuring NaV inhibition properties. It is filed as cell-based. As to conditions: HEK cells expressing truncated human NaV 1.8; no human serum; read-out: IC50 in the E-VIPR Assay. The gist of the method:
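Membrane potential was followed by coumarin/oxonol FRET during electrical field stimulation of matrigel-seeded HEK cells carrying truncated human NaV1.8 plus KIR2.1. Dosing used 11 points, 3-fold steps, top 300 nM final, 0.625% DMSO, with or without 25% human serum.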

Sequence of human NaV 1.8 (Q9Y5Y9 126-399 limits assumed): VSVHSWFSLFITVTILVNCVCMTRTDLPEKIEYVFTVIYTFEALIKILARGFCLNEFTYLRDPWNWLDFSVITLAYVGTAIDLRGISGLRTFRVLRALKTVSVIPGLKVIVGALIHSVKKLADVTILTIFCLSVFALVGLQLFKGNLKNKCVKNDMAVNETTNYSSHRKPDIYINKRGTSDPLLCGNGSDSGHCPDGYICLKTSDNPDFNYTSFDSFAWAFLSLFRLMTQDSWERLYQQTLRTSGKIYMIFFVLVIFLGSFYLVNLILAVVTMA
Sequence of human NaV 1.8 (Q9Y5Y9 660-890 limits assumed): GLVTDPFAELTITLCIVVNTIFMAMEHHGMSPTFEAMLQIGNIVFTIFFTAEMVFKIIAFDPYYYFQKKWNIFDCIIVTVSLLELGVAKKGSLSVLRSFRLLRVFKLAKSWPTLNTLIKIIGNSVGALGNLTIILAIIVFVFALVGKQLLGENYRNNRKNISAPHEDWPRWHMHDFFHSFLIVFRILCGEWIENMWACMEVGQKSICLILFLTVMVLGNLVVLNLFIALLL
Sequence of human NaV 1.8 (Q9Y5Y9 1148-1722 limits assumed): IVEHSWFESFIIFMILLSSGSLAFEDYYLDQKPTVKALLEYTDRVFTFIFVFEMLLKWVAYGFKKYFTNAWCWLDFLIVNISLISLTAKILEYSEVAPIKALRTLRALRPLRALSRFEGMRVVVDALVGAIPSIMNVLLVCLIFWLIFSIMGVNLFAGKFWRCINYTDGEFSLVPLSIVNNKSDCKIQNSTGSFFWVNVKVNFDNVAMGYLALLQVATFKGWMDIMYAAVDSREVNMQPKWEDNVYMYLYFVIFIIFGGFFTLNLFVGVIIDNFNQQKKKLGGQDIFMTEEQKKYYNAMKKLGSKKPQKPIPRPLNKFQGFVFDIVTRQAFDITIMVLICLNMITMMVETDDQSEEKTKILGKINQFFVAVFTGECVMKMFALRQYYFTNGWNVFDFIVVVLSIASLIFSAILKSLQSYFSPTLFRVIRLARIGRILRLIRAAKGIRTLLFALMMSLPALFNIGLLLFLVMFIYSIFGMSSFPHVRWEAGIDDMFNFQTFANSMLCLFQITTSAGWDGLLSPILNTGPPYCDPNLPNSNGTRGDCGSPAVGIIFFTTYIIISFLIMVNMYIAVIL

Consider `COc1c([C@H]2[C@H](C(=O)Nc3ccnc(C(O)CN(C)C)c3)O[C@@](C)(C(F)(F)F)[C@H]2C)ccc(F)c1F` (stereo partly drawn) [Compound 378, (2R,3S,4S,5R)-3-(3,4-difluoro-2-methoxy-phenyl)-N-[2-[2-(dimethylamino)-1-hydroxy-ethyl]-4-pyridyl]-4,5-dimethyl-5-(trifluoromethyl)tetrahydrofuran-2-carboxamide], for which the concentration for half-maximal inhibition (IC50) was less than 10 nM.

In the case of `Cc1nn(C(F)F)cc1NC(=O)[C@@H]1O[C@@](C)(C(F)(F)F)[C@@H](C)[C@H]1c1ccc(F)c(F)c1CCN(C)C` [Compound 678, (2R,3S,4S,5R)—N-(1-(difluoromethyl)-3-methyl-1H-pyrazol-4-yl)-3-(2-(2-(dimethylamino)ethyl)-3,4-difluorophenyl)-4,5-dimethyl-5-(trifluoromethyl)tetrahydrofuran-2-carboxamide], the IC50 lay within 100 to 1000 nM.

As to `Cc1nn(C(F)F)cc1NC(=O)[C@@H]1O[C@@](C)(C(F)(F)F)[C@@H](C)[C@H]1c1ccc(F)c(F)c1OCCN1CCOCC1` [Compound 591, (2R,3S,4S,5R)-3-(3,4-difluoro-2-(2-morpholinoethoxy)phenyl)-N-(1-(difluoromethyl)-3-methyl-1H-pyrazol-4-yl)-4,5-dimethyl-5-(trifluoromethyl)tetrahydrofuran-2-carboxamide], the half-maximal inhibitory concentration (IC50) lay in the range of 10 to 100 nM.

On to `COc1c([C@@H]2[C@@H](C(=O)Nc3ccnc(C(=O)O)c3)O[C@](C)(C(F)(F)F)[C@@H]2C)ccc(F)c1C(F)F` (single isomer, unassigned) [Compound 175], for which the IC50 was 100 to 1000 nM.

Regarding `COc1c([C@H]2[C@H](C(=O)Nc3c[nH]nn3)O[C@@](C)(C(F)(F)F)[C@H]2C)ccc(F)c1F` [Compound 372, (2R,3S,4S,5R)-3-(3,4-difluoro-2-methoxyphenyl)-4,5-dimethyl-N-(1H-1,2,3-triazol-4-yl)-5-(trifluoromethyl)tetrahydrofuran-2-carboxamide], the IC50 lay in the range of 10 to 100 nM.

With `C[C@H]1[C@@H](c2ccc(F)c(F)c2OCCN2CCOCC2)[C@H](C(=O)Nc2ccn(C)c(=O)c2)O[C@@]1(C)C(F)(F)F` [Compound 588, (2R,3S,4S,5R)-3-(3,4-difluoro-2-(2-morpholinoethoxy)phenyl)-4,5-dimethyl-N-(1-methyl-2-oxo-1,2-dihydropyridin-4-yl)-5-(trifluoromethyl)tetrahydrofuran-2-carboxamide], the IC50 lay in the range of 10 to 100 nM.

For `C[C@H]1[C@@H](c2ccc(F)c(F)c2O[C@H]2C[C@@H](O)C2)[C@H](C(=O)Nc2ccnnc2)O[C@@]1(C)C(F)(F)F` [Compound 658, (2R,3S,4S,5R)-3-(3,4-difluoro-2-((1s,3R)-3-hydroxycyclobutoxy)phenyl)-4,5-dimethyl-N-(pyridazin-4-yl)-5-(trifluoromethyl)tetrahydrofuran-2-carboxamide], the IC50 was 10 to 100 nM.

Regarding `COCc1cc(NC(=O)[C@@H]2O[C@@](C)(C(F)(F)F)[C@@H](C)[C@H]2c2ccc(F)c(F)c2OCCO)ccn1` [Compound 564, (2R,3S,4S,5R)-3-(3,4-difluoro-2-(2-hydroxyethoxy)phenyl)-N-(2-(methoxymethyl)pyridin-4-yl)-4,5-dimethyl-5-(trifluoromethyl)tetrahydrofuran-2-carboxamide], the IC50 was less than 10 nM.

`COc1c([C@H]2[C@H](C(=O)Nc3cc(O[C@@H]4COC[C@@H]4O)ncn3)O[C@@](C)(C(F)(F)F)[C@H]2C)ccc(F)c1F` (relative stereo) [Compound 238, (2R*,3S*,4S*,5R*)-3-(3,4-difluoro-2-methoxyphenyl)-N-(6-((cis-4-hydroxytetrahydrofuran-3-yl)oxy)pyrimidin-4-yl)-4,5-dimethyl-5-(trifluoromethyl)tetrahydrofuran-2-carboxamide]: the IC50 lay in the range of 10 to 100 nM.

For `C[C@H]1[C@@H](c2ccc(F)c(F)c2)[C@H](C(=O)Nc2ccnc(S(C)(=O)=O)c2)O[C@@]1(C)C(F)(F)F` (stereo in doubt) [Compound 155, rel-(2R,3S,4S,5R)-3-(3,4-difluorophenyl)-4,5-dimethyl-N-(2-(methylsulfonyl)pyridin-4-yl)-5-(trifluoromethyl)tetrahydrofuran-2-carboxamide], the IC50 fell in the range of 10 to 100 nM.

For orientation: IC50 means the point on the concentration scale where inhibition reaches its midpoint.
